In series [1] the target is Ephrin type-B receptor 4 (Homo sapiens) (UniProt P54760). The series can be described thus: Inhibition of recombinant human EphB4 (561 to end residues) assessed as residual activity at 10 uM using poly (Glu, Tyr) 4:1 as substrate measured after 40 mins in presence of [gamma33P]ATP by scintillation counting method.
Series [2] has as its target CDK2/Cyclin A2 (Homo sapiens) (UniProt P24941+P20248). The series can be described thus: Inhibition of recombinant full-length human CDK2/cyclinA assessed as residual activity at 10 uM using histone H1 as substrate measured after 40 mins in presence of [gamma33P]ATP by scintillation counting method. Type of series: protein-complex assay.
Series [3] deals with Homeodomain-interacting protein kinase 4 (Homo sapiens) (UniProt Q8NE63). The series can be described thus: Inhibition of recombinant full-length human HIPK4 assessed as residual activity at 10 uM using RRRFRPASPLRGPPK as substrate measured after 40 mins in presence of [gamma33P]ATP by scintillation counting method.
For series [4], the target named is Mast/stem cell growth factor receptor Kit (Homo sapiens) (UniProt P10721). The series can be described thus: Inhibition of recombinant human c-Kit (544 to end residues) assessed as residual activity at 10 uM using poly(Glu, Tyr) 4:1 as substrate measured after 40 mins in presence of [gamma33P]ATP by scintillation counting method.
The subject of the next series is SW-620. Briefly: Induction of apoptosis in human SW620 cells assessed as necrotic cells at 25 nM measured after 48 hrs by Annexin V-FITC/propidium iodide staining-based flow cytometry (reference value: 2.71%). Type of series: functional. (In general: Flow cytometry measures light scatter and fluorescence of single cells or particles in a stream.)
Series [5] concerns the target Fibroblast growth factor receptor 1 (Homo sapiens) (UniProt P11362). The series can be described thus: Inhibition of recombinant human FGFR1 (456 to 765 residues) assessed as residual activity at 10 uM using KKKSPGEYVNIEFG as substrate measured after 40 mins in presence of [gamma33P]ATP by scintillation counting method.
The target of series [6] is Tyrosine-protein kinase Srms (Homo sapiens) (UniProt Q9H3Y6). Briefly: Inhibition of human SRMS assessed as residual activity at 10 uM by radiometric method.
The nature of series [7]: Toxicity in Balb/c mouse spleen at 80 mg/kg after 4 weeks by hematoxylin and eosin staining-based assay. Format: organism-based. The note with it: in vivo, 672 h.
The target of series [8] is Dual specificity mitogen-activated protein kinase kinase 6 (Homo sapiens) (UniProt P52564). The series can be described thus: Inhibition of recombinant human MKK6 (4 to end residues) assessed as residual activity at 10 uM using unactive SAPK2a as substrate measured after 40 mins in presence of [gamma33P]ATP by scintillation counting method.
For series [9], the target named is Casein kinase I isoform epsilon (Homo sapiens) (UniProt P49674). The series can be described thus: Inhibition of human CK1epsilon assessed as residual activity at 10 uM using KRRRALS(p)VASLPGL as substrate measured after 120 mins in presence of [gamma33P]ATP by scintillation counting method.
In series [10] the target is Serine/threonine-protein kinase 32B (Homo sapiens) (UniProt Q9NY57). Briefly: Inhibition of recombinant full-length human STK32B assessed as residual activity at 10 uM using casein as substrate measured after 120 mins in presence of [gamma33P]ATP by scintillation counting method.
Series [11] concerns the target G protein-coupled receptor kinase 3 (Homo sapiens) (UniProt P35626). The series can be described thus: Inhibition of recombinant full-length human GRK5 assessed as residual activity at 10 uM using casein as substrate measured after 40 mins in presence of [gamma33P]ATP by scintillation counting method.
Series [12] addresses Activated CDC42 kinase 1 (Homo sapiens) (UniProt Q07912). The series can be described thus: Inhibition of recombinant human ACK1 (1 to 389 residues) assessed as residual activity at 10 uM using EFPIYDFLPAKKK as substrate measured after 40 mins in presence of [gamma33P]ATP by scintillation counting method.
The target in series [13] is Receptor-interacting serine/threonine-protein kinase 1 (Homo sapiens) (UniProt Q13546). Briefly: Inhibition of human RIPK1 (8 to 322 residues) using myelin basic protein as substrate measured after 120 mins in presence of [gamma33P]ATP by scintillation counting method. Also on record: scale not given: the % may be the effect or the level left.
In series [14] the target is Serine/threonine-protein kinase MRCK alpha (Homo sapiens) (UniProt Q5VT25). Briefly: Inhibition of recombinant human MRCKalpha (1 to 473 residues) assessed as residual activity at 10 uM using KKRNRTLTV as substrate measured after 40 mins in presence of [gamma33P]ATP by scintillation counting method.
In series [15] the test system is Hepatocyte growth factor receptor (Homo sapiens), P08581 [Y1230D]. The series can be described thus: Inhibition of recombinant human MET A1209G/V1290L/Y1248D mutant (974 to end residues) assessed as residual activity at 10 uM using KKKGQEEEYVFIE as substrate measured after 40 mins in presence of [gamma33P]ATP by scintillation counting method.
The target of series [16] is Mitogen-activated protein kinase 10 (Homo sapiens) (UniProt P53779). Briefly: Inhibition of recombinant full-length human JNK3 assessed as residual activity at 10 uM using peptide substrate measured after 40 mins in presence of [gamma33P]ATP by scintillation counting method.
The subject of series [17] is Hepatocyte growth factor receptor (Homo sapiens), P08581 [D1228H]. The series can be described thus: Inhibition of recombinant human MET A1209G/V1290L/D1246H mutant (974 to end residues) assessed as residual activity at 10 uM using KKKGQEEEYVFIE as substrate measured after 40 mins in presence of [gamma33P]ATP by scintillation counting method.
The test system of series [18] is RAC-gamma serine/threonine-protein kinase (Homo sapiens), Q9Y243 [S472D]. The series can be described thus: Inhibition of recombinant full-length human PKBgamma S472D mutant (117 to end residues) assessed as residual activity at 10 uM using GRPRTSSFAEGKK as substrate measured after 40 mins in presence of [gamma33P]ATP by scintillation counting method.
For series [19], the target named is Tyrosine-protein kinase ABL1 (Homo sapiens) (UniProt P00519). The series can be described thus: Inhibition of recombinant human ABL (27 to end residues) assessed as residual activity at 10 uM using EAIYAAPFAKKK as substrate measured after 40 mins in presence of [gamma33P]ATP by scintillation counting method.
Series [20] concerns HCT-116. Briefly: Antitumor activity against human HCT116 cells xenografted in nude BALB/c mouse assessed as reduction in tumor weight at 80 mg/kg, po administered once daily for 4 weeks measured every 3 days during compound dosing. Format: functional, organism-based.
For series [21], the system named is HCT-116. The series can be described thus: Induction of apoptosis in human HCT116 cells assessed as increase in Bax expression up to 200 nM measured after 48 hrs by Western blot analysis. Type of series: functional, cell-based. In general terms: A western blot detects proteins with antibodies after separation by electrophoresis.
Series [22] addresses [Pyruvate dehydrogenase (acetyl-transferring)] kinase isozyme 4, mitochondrial (Homo sapiens) (UniProt Q16654). Briefly: Inhibition of recombinant full-length human PDHK4 assessed as residual activity at 10 uM using KKKYHGHSMSDPGVSYRT as substrate measured after 40 mins in presence of [gamma33P]ATP by scintillation counting method.
In series [23] the target is Protein kinase C beta type (Homo sapiens) (UniProt P05771). The series can be described thus: Inhibition of recombinant human PKCbeta1 (2 to end residues) assessed as residual activity at 10 uM using histone H1 as substrate measured after 40 mins in presence of [gamma33P]ATP by scintillation counting method.

The structures appear in SMILES notation. Active and inactive are the calls of the source. No cut-off for these calls is given here.

Sequence of Activated CDC42 kinase 1 (Homo sapiens) (Q07912 whole entry, looked up, the tested form may be a part): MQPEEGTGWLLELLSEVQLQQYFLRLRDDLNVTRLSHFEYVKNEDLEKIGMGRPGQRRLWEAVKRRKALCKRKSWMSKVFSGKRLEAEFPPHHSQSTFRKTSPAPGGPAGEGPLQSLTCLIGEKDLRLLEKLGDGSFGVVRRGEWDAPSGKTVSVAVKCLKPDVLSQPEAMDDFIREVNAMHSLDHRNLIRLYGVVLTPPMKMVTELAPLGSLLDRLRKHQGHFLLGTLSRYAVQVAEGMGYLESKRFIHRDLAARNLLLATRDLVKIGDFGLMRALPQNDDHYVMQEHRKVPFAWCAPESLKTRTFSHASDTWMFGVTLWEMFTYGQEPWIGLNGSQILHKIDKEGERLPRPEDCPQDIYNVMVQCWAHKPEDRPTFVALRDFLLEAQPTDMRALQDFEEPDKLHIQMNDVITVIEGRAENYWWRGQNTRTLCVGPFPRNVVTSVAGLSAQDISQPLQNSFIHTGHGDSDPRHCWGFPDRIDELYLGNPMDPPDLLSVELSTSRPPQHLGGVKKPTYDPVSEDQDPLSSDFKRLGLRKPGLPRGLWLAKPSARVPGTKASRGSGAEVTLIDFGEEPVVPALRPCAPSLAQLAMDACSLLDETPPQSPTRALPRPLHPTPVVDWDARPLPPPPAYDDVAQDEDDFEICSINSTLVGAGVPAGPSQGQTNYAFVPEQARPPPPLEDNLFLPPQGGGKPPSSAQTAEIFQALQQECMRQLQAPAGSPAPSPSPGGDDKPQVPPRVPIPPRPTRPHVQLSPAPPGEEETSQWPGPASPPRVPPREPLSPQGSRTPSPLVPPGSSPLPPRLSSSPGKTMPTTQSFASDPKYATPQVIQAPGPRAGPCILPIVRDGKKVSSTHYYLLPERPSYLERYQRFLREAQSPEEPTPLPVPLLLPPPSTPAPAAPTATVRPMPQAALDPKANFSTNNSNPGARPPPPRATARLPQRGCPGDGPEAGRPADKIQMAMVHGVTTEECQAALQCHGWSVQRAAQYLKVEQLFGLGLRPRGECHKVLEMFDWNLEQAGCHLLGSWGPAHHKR
Sequence of Homeodomain-interacting protein kinase 4 (Homo sapiens) (Q8NE63 whole entry): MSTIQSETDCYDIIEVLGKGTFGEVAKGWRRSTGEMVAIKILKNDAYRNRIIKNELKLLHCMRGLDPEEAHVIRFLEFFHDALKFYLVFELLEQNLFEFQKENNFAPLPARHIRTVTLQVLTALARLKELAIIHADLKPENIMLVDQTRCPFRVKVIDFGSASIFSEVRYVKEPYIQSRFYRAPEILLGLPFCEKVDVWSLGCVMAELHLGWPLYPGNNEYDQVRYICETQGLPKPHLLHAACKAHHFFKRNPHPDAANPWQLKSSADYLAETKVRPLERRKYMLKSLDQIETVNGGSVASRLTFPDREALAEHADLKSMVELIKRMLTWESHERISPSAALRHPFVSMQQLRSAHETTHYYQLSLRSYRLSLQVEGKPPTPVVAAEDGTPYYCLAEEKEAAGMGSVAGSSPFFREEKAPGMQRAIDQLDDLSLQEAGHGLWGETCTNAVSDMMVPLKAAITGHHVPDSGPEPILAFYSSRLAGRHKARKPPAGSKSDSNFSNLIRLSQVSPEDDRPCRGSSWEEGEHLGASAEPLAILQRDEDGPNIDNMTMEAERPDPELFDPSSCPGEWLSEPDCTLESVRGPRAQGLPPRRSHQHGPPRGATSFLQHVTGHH
Sequence of RAC-gamma serine/threonine-protein kinase (Homo sapiens), Q9Y243 [S472D] (Q9Y243 whole entry S472D): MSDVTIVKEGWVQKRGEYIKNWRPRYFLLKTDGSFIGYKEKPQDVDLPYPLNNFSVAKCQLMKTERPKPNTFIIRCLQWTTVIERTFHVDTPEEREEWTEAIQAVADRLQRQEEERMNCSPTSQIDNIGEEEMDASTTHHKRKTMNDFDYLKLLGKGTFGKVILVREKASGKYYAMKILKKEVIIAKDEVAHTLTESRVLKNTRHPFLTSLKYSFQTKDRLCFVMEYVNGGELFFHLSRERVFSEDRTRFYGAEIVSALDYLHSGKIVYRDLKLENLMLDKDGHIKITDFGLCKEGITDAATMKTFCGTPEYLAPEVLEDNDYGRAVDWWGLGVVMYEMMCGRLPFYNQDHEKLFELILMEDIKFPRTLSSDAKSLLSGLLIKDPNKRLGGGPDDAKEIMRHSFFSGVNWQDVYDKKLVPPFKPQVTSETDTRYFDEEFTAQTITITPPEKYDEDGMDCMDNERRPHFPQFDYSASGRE
Sequence of Tyrosine-protein kinase Srms (Homo sapiens) (Q9H3Y6 whole entry): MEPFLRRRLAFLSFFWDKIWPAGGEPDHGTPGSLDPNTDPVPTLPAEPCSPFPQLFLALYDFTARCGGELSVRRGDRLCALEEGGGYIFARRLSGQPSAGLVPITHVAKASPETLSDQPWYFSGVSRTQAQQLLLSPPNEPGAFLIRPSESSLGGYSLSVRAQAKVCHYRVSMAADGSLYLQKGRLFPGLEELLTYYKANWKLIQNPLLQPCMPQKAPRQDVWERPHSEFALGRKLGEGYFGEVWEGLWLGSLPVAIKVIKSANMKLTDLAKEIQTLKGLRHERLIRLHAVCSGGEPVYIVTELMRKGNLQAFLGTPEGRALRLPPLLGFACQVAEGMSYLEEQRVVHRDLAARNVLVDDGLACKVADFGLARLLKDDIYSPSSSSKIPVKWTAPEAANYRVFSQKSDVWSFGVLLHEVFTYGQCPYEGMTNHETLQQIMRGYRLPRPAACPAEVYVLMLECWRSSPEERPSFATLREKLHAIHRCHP
Sequence of Casein kinase I isoform epsilon (Homo sapiens) (P49674 whole entry, looked up, canonical isoform): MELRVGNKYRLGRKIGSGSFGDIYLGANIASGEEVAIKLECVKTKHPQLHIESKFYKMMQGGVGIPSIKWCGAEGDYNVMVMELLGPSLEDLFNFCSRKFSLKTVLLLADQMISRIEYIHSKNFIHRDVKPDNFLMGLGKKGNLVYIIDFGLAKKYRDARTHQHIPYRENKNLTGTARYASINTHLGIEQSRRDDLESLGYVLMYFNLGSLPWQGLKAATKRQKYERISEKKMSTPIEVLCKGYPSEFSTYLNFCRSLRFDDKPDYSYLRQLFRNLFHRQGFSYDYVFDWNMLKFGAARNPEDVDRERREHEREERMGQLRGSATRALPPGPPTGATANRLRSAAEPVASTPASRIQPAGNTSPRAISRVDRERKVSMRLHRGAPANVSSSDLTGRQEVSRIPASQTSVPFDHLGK
Sequence of G protein-coupled receptor kinase 3 (Homo sapiens) (P35626 whole entry, the tested form may be a part): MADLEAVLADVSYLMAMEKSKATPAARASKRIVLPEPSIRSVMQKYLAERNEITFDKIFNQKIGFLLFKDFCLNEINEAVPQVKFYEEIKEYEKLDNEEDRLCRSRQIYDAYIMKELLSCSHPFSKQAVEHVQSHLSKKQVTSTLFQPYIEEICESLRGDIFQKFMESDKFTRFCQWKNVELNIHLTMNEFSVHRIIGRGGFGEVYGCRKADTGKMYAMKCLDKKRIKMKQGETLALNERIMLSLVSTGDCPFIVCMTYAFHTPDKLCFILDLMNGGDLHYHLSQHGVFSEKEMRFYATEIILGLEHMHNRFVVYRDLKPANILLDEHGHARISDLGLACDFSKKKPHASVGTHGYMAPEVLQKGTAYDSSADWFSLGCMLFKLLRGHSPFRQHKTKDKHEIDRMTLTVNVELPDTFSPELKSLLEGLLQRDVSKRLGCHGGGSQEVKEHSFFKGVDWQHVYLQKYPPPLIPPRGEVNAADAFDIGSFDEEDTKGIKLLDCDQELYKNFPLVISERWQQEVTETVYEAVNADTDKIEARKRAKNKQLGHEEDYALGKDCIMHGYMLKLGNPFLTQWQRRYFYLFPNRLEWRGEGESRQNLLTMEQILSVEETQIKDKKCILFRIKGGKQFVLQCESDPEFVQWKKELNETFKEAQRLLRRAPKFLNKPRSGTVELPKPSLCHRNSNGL
Sequence of Tyrosine-protein kinase ABL1 (Homo sapiens) (P00519 whole entry): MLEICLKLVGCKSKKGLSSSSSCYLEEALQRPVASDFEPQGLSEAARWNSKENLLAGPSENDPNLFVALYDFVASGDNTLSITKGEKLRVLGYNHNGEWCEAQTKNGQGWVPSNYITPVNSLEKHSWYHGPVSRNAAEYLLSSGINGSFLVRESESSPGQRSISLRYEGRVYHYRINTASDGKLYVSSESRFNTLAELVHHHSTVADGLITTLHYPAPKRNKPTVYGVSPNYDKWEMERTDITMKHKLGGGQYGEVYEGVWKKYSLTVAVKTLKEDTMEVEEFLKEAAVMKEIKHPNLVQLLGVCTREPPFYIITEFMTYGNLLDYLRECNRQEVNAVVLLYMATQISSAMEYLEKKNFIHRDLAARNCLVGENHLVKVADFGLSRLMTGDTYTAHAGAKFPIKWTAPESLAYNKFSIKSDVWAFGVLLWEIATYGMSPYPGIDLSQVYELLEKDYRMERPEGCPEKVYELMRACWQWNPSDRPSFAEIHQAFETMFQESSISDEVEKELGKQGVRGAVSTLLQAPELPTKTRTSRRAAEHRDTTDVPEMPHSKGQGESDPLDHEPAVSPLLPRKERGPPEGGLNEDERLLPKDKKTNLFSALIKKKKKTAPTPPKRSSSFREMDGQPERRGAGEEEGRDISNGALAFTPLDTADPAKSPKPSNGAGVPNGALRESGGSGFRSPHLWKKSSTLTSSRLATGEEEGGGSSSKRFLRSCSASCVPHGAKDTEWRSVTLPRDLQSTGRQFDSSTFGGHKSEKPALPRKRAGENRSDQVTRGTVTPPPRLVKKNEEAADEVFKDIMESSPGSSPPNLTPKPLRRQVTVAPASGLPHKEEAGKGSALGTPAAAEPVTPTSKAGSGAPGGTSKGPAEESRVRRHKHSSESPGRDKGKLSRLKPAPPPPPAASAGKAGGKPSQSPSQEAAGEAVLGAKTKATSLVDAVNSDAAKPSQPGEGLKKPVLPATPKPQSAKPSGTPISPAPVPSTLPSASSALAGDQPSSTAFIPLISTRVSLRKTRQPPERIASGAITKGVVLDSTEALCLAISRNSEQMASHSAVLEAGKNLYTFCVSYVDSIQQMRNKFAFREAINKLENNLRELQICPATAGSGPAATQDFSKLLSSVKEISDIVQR

With `Cc1cc(C)c(CNc2nc(Cl)nc3c2ncn3C2CCCC2)c(=O)[nH]1`, the Activity in series [1] came to 102%; in series [2], 110%; in [3] it was 110%; in [4], 99.5%; with SW-620 it was 2.71%; in [5], 108%. Also, the Activity in series [6] is 108%; in [7] it was “Non-Toxic”; in series [8] it was 114%; in [9], 100%; in series [10], 98%; in series [11], 105%. Moreover, the Activity was 118% in series [12]; 92% in [13]; 110% in [14]; 102% in series [15]; 142% in series [16]; 108% in series [17]. The Activity worked out at 91% in series [18], 108% in series [19], 95% in [22] and 96% in series [23]. For the same molecule, the outcome in the series with HCT-116 [20] and with HCT-116 [21] was Active.
